Data taken from article PMC3684073 (Journal of agricultural and food chemistry, 2008).
pEC50, pIC50: −log10 of the molar value. Where two headings read alike, the source gives them in different places.

Key:
[1] = biological target: T1, 5-HT7 receptor (Homo sapiens, UniProt P34969); assay: 5-HT7 receptor competitive binding assay; settings: for 5-HT7 competitive binding % Inhibition ± SD: tested at 50 μM, NA = not active
[2] = biological target: T1, 5-HT7 receptor; assay: Intracellular cAMP assay in 5-HT7-transfected HEK293 cells; format: cell-based
[3] = biological target: human serotonin transporter (hSERT) (Homo sapiens, UniProt P31645); assay: cell-based
[4] = biological target: T2, 5-HT1A (Homo sapiens, UniProt P08908); assay: MDS Pharma serotonin receptor binding, 5-HT1A
T2 sequence (P08908 1-422): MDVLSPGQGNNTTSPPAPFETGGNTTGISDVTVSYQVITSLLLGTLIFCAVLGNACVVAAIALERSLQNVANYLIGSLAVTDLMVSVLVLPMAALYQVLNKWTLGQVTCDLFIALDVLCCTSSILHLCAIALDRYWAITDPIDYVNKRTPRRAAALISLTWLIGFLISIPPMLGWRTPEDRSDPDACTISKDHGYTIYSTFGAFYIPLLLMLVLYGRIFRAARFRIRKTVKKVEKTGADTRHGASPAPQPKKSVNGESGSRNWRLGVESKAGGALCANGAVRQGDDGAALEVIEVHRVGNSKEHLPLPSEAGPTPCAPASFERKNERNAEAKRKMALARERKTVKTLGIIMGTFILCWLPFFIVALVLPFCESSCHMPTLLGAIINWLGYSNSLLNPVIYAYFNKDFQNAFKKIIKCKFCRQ

[5] = biological target: 5-HT1B (Rattus norvegicus, UniProt P28564); assay: MDS Pharma serotonin receptor binding, 5-HT1B
[6] = biological target: 5-HT2B (Homo sapiens, UniProt P41595); assay: MDS Pharma serotonin receptor binding, 5-HT2B
[7] = biological target: T3, 5-HT2C (Homo sapiens, UniProt P28335); assay: MDS Pharma serotonin receptor binding, 5-HT2C
T3 sequence (P28335 33-458): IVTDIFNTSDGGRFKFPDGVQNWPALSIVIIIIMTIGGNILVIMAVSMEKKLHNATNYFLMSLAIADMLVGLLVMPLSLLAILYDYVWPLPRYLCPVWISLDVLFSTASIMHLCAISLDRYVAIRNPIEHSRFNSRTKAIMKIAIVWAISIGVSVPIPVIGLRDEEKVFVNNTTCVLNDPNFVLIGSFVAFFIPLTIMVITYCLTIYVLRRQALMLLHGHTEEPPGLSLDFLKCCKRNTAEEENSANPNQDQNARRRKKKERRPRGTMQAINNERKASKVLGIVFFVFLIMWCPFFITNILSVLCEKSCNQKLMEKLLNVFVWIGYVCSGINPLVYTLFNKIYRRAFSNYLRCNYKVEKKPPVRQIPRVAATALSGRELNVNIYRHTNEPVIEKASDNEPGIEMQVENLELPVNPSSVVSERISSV

[8] = biological target: T4, 5-HT3 (Homo sapiens, UniProt P46098); assay: MDS Pharma serotonin receptor binding, 5-HT3
T4 sequence (P46098 24-478): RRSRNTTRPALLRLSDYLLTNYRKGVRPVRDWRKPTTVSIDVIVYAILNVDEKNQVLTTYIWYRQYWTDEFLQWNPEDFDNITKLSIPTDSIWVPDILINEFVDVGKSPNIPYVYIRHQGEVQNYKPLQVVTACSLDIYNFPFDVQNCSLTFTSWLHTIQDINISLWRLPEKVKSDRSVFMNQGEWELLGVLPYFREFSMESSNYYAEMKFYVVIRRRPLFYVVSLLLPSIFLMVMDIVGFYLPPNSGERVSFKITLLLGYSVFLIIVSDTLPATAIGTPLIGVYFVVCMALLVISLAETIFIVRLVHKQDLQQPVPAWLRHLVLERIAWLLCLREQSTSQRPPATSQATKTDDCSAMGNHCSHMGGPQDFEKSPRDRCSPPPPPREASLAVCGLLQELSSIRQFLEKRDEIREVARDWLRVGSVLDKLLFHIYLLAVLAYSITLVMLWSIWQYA

[9] = biological target: 5-HT4 (Cavia porcellus, UniProt O70528); assay: MDS Pharma serotonin receptor binding, 5-HT4
[10] = biological target: 5-HT5A (Homo sapiens, UniProt P47898); assay: MDS Pharma serotonin receptor binding, 5-HT5A
[11] = biological target: 5-HT6 (Homo sapiens, UniProt P50406); assay: MDS Pharma serotonin receptor binding, 5-HT6
[12] = read-out: 5-HT7 receptor binding IC50, pure compounds

## COc1ccc(/C=C/C(=O)O[C@H](C(=O)O)[C@](O)(Cc2ccc(O)c(O)c2)C(=O)O)cc1O [Cimicifugic acid B, cimicifugic acid B]
[1]
  pIC50: < 3.30

## COc1cc(/C=C/C(=O)O[C@H](C(=O)O)[C@](O)(Cc2ccc(O)cc2)C(=O)O)ccc1O [Cimicifugic acid E, cimicifugic acid E]
[1]
  pIC50: < 3.30

## 25-anhydrocimigenol-3-O- β-xyloside
[1]
  5-HT7 competitive binding % Inhibition ± SD: 31 ± 8%

## CC(=O)O[C@@H]1C[C@@]23C[C@@]24CC[C@H](O[C@@H]2OC[C@@H](O)[C@H](O)[C@H]2O)C(C)(C)[C@@H]4CC[C@H]3[C@]2(C)C[C@@H]3O[C@@]4(C[C@@H](C)[C@@H]3[C@@]12C)OC[C@@]1(C)O[C@@H]41 [23-epi-26-deoxyactein]
[1]; [12]
  pIC50: ≤ 4.00

## COc1ccc(/C=C/C(=O)O[C@H](C(=O)O)[C@](O)(Cc2ccc(O)cc2)C(=O)O)cc1O [Cimicifugic acid F, cimicifugic acid F]
[1]
  pIC50: < 3.30

## 23-O-acetylshengmanol-3-β-D-xyloside
[1]
  5-HT7 competitive binding % Inhibition ± SD: 35 ± 10%

## Actein (R,S)
[1]; [12]
  pIC50: ≤ 4.00

## O=C(/C=C/c1ccc(O)c(O)c1)O[C@H](C(=O)O)[C@](O)(Cc1ccc(O)c(O)c1)C(=O)O [fukinolic acid]
[1]
  pIC50: 4.00

## CC(=O)O[C@@H]1CO[C@@H](O[C@H]2CC[C@]34C[C@]35C[C@@H](OC(C)=O)[C@]3(C)[C@H]6[C@H](C)C[C@]7(OC(O)[C@]8(C)O[C@H]78)O[C@H]6C[C@@]3(C)[C@@H]5CC[C@H]4C2(C)C)[C@H](O)[C@H]1O (stereo partly drawn) [Cimiracemoside O]
[1]
  5-HT7 competitive binding % Inhibition ± SD: 19 ± 5%

## CNCCc1c[nH]c2ccc(O)cc12 [Nω-methylserotonin, 3-(2-Methylaminoethyl)indol-5-ol]
[1]; 5-HT7 receptor binding IC50
  pIC50: 10.64
[1]; IC50, 5-HT7, triplicate in three independent experiments
  pIC50: 10.70
[2]
  pEC50: 7.66
[2]; at 100 nM, the highest tested concentration
  maximum cAMP induction: 43 pmol/mL
[3]
  pIC50: 6.31
[4]
  pIC50: 8.70
[5]
  pIC50: 7.82
[6]
  pIC50: 7.01
[7]
  pIC50: 7.00
[8]
  pIC50: 5.78
[9]
  pIC50: 5.17
[10]
  pIC50: 6.54
[11]
  pIC50: 7.26

## CC(=O)O[C@@H]1C[C@@]23C[C@@]24CC[C@H](O[C@@H]2OC[C@H](O)[C@H](O)[C@H]2O)C(C)(C)[C@@H]4CC[C@H]3[C@]2(C)C[C@@H]3O[C@]4(C[C@@H](C)[C@@H]3[C@@]12C)OC[C@]1(C)O[C@H]41 [Cimiracemoside N]
[1]
  5-HT7 competitive binding % Inhibition ± SD: 18 ± 4%

## CC(=O)O[C@@H]1C[C@@]23C[C@@]24CC[C@H](O[C@@H]2OC[C@@H](O)[C@H](O)[C@H]2O)C(C)(C)[C@@H]4CC[C@H]3[C@]2(C)C[C@@H]3O[C@]4(C[C@@H](C)[C@@H]3[C@@]12C)OC[C@@]1(C)O[C@@H]41 [26-deoxyactein]
[1]; [12]
  pIC50: ≤ 4.00
[1]
  5-HT7 competitive binding % Inhibition ± SD: 38 ± 4%

## COc1cc(/C=C/C(=O)O[C@H](C(=O)O)[C@](O)(Cc2ccc(O)c(O)c2)C(=O)O)ccc1O [Cimicifugic acid A, cimicifugic acid A]
[1]
  pIC50: < 3.30
